In assay [1] the target is T1, Progesterone receptor (Homo sapiens, UniProt P06401).
T1 sequence (P06401 whole entry): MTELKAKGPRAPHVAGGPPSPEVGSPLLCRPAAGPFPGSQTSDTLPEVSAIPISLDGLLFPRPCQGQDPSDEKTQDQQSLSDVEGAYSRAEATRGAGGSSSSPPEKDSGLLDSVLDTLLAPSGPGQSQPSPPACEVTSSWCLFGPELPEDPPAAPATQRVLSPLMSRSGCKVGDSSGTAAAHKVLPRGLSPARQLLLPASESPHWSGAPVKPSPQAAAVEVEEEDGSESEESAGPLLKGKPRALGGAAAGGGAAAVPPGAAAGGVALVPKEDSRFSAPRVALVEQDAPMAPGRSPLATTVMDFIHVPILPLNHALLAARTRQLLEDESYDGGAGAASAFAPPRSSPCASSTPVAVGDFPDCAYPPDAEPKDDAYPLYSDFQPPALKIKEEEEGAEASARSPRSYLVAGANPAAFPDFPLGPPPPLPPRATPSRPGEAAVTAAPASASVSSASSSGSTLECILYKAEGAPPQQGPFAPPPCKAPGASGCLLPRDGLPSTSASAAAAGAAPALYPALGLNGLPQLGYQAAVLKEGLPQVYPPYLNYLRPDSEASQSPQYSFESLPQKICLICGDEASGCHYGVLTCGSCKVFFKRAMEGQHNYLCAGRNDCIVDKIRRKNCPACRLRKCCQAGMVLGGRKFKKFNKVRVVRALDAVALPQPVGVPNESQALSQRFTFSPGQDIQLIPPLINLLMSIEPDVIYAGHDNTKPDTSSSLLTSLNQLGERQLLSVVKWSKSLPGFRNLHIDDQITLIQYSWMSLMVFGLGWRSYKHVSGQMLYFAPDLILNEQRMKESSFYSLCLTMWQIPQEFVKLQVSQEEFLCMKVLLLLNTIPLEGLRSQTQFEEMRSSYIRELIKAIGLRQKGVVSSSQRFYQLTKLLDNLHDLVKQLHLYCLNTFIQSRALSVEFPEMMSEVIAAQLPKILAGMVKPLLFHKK
Put plainly: Ability to block progesterone induced alkaline phosphatase activity in T47D human breast cancer cell line. The assay is classed as functional, cell-based.

Assay [2] addresses T2, Progesterone receptor (Rattus norvegicus) (UniProt Q63449).
T2 sequence (whole entry): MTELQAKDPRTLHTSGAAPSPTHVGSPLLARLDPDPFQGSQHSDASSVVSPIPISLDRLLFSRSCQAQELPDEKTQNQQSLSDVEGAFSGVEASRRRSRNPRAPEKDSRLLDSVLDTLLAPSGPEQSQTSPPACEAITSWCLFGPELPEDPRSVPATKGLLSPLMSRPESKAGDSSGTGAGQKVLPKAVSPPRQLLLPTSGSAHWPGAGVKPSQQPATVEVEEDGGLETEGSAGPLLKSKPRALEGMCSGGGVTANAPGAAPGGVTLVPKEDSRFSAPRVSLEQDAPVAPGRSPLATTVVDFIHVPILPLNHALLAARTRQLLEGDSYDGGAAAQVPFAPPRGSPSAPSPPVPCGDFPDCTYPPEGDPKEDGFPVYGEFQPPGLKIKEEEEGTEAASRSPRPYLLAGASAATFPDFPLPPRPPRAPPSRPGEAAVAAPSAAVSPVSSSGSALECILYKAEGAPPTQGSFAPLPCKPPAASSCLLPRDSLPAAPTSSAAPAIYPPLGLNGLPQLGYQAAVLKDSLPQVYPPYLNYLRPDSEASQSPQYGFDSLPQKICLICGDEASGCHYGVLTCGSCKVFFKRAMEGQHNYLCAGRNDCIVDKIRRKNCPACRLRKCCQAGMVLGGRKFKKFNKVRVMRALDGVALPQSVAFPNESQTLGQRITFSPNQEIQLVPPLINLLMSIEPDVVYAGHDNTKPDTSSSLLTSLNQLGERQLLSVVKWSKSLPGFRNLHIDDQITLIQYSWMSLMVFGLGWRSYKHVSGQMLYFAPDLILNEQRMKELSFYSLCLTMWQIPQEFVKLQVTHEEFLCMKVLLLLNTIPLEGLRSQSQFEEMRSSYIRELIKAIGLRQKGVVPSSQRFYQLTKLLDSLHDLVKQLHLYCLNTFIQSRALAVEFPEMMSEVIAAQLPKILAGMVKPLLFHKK
Put plainly: Percentage inhibition of progesterone-induced stimulation when administered orally at 3 mg/kg in rat decidualization assay. The assay is classed as functional, organism-based. On the set-up: dose 3 mg/kg.

The target of assay [3] is T1, Progesterone receptor. Put plainly: Agonistic activity measures the ability to induce alkaline phosphatase in T47D human breast cancer cell line. Format: functional, cell-based.
Assay [4] in a line: Displacement of [3H]progesterone at progesterone receptor of T47D cells. The assay is classed as cell-based, Homo sapiens. In general terms: In a radioligand displacement assay an active substance lowers the binding of a labelled ligand.
In assay [5] the target is T2, Progesterone receptor (Rattus norvegicus). Put plainly: Percentage inhibition of progesterone-induced stimulation when administered orally at 10 mg/kg in rat decidualization assay. The arrangement: dose 10 mg/kg. Format: functional, organism-based.
In assay [6] the target is T1, Progesterone receptor. Put plainly: Agonistic activity as progesterone receptor induced alkaline phosphatase activity in T47D human breast cancer cells. Format: functional, cell-based.
Assay [7] addresses T3, Progesterone receptor (Homo sapiens) (UniProt P06401).
T3 sequence (whole entry): T1 sequence (P06401 whole entry)
In words: Efficacy in vitro relative to P4 in progesterone receptor induced alkaline phosphatase T47D cell assay. The assay is classed as functional, cell-based.

Assay [8] addresses T4, Androgen receptor (Homo sapiens) (UniProt P10275).
T4 sequence (whole entry): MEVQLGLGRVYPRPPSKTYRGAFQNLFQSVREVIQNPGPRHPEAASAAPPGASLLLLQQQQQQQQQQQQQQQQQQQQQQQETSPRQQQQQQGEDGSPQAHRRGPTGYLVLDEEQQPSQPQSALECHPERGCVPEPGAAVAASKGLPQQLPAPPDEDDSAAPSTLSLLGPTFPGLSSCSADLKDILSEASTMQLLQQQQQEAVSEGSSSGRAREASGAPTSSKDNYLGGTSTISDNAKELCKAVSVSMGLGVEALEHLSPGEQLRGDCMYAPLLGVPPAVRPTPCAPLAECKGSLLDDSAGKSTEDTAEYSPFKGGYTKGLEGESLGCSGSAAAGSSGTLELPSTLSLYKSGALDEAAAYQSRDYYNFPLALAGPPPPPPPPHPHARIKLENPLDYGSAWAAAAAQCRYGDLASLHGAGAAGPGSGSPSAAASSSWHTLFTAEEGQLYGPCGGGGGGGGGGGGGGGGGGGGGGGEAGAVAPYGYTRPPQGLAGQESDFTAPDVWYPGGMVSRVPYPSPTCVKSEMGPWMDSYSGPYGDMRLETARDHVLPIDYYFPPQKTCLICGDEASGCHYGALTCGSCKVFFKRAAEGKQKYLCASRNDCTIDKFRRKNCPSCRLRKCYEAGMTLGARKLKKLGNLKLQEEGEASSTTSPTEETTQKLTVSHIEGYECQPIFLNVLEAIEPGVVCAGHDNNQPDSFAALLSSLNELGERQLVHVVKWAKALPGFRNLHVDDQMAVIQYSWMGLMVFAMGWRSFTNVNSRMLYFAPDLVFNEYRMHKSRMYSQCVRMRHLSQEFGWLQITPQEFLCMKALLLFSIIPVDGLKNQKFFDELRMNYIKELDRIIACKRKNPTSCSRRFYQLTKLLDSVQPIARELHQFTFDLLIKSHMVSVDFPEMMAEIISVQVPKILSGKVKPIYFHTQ
Put plainly: Agonistic activity for androgen receptor up to 10 uM; Not active. The assay is classed as functional.

A further assay concerns the target T5, Androgen receptor (Homo sapiens, UniProt P10275).
T5 sequence (P10275 whole entry): T4 sequence (whole entry)
In words: Antagonist activity for androgen receptor. The assay is classed as functional.

The nature of assay [9]: Agonistic activity for glucocorticoid receptor up to 10 uM; Not active. The assay is classed as functional.
Assay [10] in a line: Antagonist activity for glucocorticoid receptor. Format: functional.

pEC50, pIC50: −log10 of the molar value. Calls of active or inactive are those of the source. The rule behind the calls is not given here.

What is called pIC50 is −log10 of the IC50, conventionally taken in molar units. One may read the inhibition as the share of the control response that was lost under treatment. Low values mean a weak effect, high ones a strong effect. As a reminder, the pEC50 is the EC50 on a negative log10 scale, so that one unit is a factor of ten.

On Progesterone receptor [1], `O=C1Nc2ccc(-c3ccc([N+](=O)[O-])[nH]3)cc2C12CCCCC2` had a pIC50 of 7.44. For the same compound, in assay [2], the inhibition was found to be 50%. In addition, the pEC50 on Progesterone receptor [3] was below 6.00.

Consider `Cn1c(C#N)ccc1-c1ccc2c(c1)C1(CCCCC1)C(=O)N2`, for which the pIC50 against Progesterone receptor [1] is below 5.52; in [4], 8.47. For the same compound, the pEC50 on Progesterone receptor [3] was 8.55.

For the compound `CC1(C)OC(=O)Nc2ccc(-c3ccc[nH]3)cc21`, the pIC50 against Progesterone receptor [1] is around 5.52. The compound also gave a pEC50 at Progesterone receptor [3] below 5.52.

`CC(=O)[C@H]1CC[C@H]2[C@@H]3CCC4=CC(=O)CC[C@]4(C)[C@H]3CC[C@]12C` [PROGESTERONE] gave a pIC50 in [4] of 8.47.

`Cn1c(C#N)ccc1-c1ccc2c(c1)C(C)(C)OC(=O)N2` returned an inhibition in assay [5] of 50%. Also, the pEC50 at Progesterone receptor [6] is 8.96. For the same compound, the figures for the pIC50 (at Progesterone receptor [1]; in assay [4]) were below 5.52 and 8.31, respectively. Besides, the Efficacy in assay [7] amounted to 80%.

In the case of `N#Cc1ccc(-c2ccc3c(c2)C2(CCCCC2)C(=O)N3)[nH]1`, the pIC50 on Progesterone receptor [1] was below 5.52. In addition, the pEC50 at Progesterone receptor [3] is 7.22.

In the case of `N#Cc1cccc(-c2ccc3c(c2)C2(CCCCC2)C(=O)N3)c1`, the outcome in [8] and in assay [9] was inactive. Also, the pIC50 (on Androgen receptor; in assay [10]) was below 6.00 throughout.

Regarding `CC1(C)OC(=O)Nc2ccc(-c3ccc(C#N)[nH]3)cc21`, the pIC50 is below 5.52 against Progesterone receptor [1] and 7.54 in assay [4]. For the same compound, on Progesterone receptor [3], the pEC50 was 8.68.

In [5], `CCn1c(C#N)ccc1-c1ccc2c(c1)C(C)(C)OC(=O)N2` displayed an inhibition of 30%. For the same compound, the pEC50 on Progesterone receptor [6] was 8.74. Also, the negative-log IC50 (pIC50) was around 5.52 at Progesterone receptor [1] and 8.03 in [4]. Besides, in assay [7], the Efficacy was determined as 80%.

Turning to `CC1(C)OC(=O)Nc2ccc(-c3ccc([N+](=O)[O-])[nH]3)cc21`, the pIC50 at Progesterone receptor [1] is 6.74. Moreover, on Progesterone receptor [3], the pEC50 is around 6.00.

`CC1(C)OC(=O)Nc2ccc(-c3[nH]ccc3C#N)cc21` showed a pIC50 on Progesterone receptor [1] below 5.52. This compound had a pEC50 on Progesterone receptor [3] below 6.00.

At Progesterone receptor [1], `Cn1ccc(C#N)c1-c1ccc2c(c1)C(C)(C)OC(=O)N2` had a pIC50 of around 5.52. This compound had a pEC50 at Progesterone receptor [3] below 6.00.

For the compound `CC#C[C@]1(O)CC[C@H]2[C@@H]3CCC4=CC(=O)CCC4=C3[C@@H](c3ccc(N(C)C)cc3)C[C@@]21C` [MIFEPRISTONE], the pIC50 in assay [4] is 9.15.

For the compound `CC1(C)OC(=O)Nc2ccc(-c3cnc(C#N)o3)cc21`, at Progesterone receptor [1], the pIC50 was around 5.52. Further, the pEC50 on Progesterone receptor [3] is below 6.00.

Take `CC1(C)OC(=O)Nc2ccc(-c3ccc(C=O)[nH]3)cc21`: the pIC50 against Progesterone receptor [1] was below 5.52. This compound also gave a pEC50 on Progesterone receptor [3] of around 6.00.

Take `Cn1cc(-c2ccc3c(c2)C(C)(C)OC(=O)N3)cc1C#N`: the pIC50 was 7.39 at Progesterone receptor [1] and 7.06 in [4]. At Progesterone receptor [3], this compound showed a negative-log EC50 (pEC50) below 6.00.

The compound `CC1(C)OC(=O)Nc2ccc(-c3ccc(C#N)s3)cc21` showed a pIC50 on Progesterone receptor [1] of 7.64. For the same compound, the pEC50 on Progesterone receptor [3] is around 6.00.

Compound `CC1(C)OC(=O)Nc2ccc(-c3ccc(C#N)o3)cc21` showed a pIC50 on Progesterone receptor [1] of 7.19. On Progesterone receptor [3], this compound had a pEC50 of around 5.52.

For `CC1(C)OC(=O)Nc2ccc(-c3cccc(C#N)c3)cc21`, the pIC50 against Progesterone receptor [1] is 8.10; in assay [4], 7.74. The same compound gave a pEC50 at Progesterone receptor [3] of around 6.00.

On Progesterone receptor [1], `CC1(C)OC(=O)Nc2ccc(-c3c[nH]c(C#N)c3)cc21` gave a pIC50 of around 5.70. At Progesterone receptor [3], this compound had a pEC50 below 6.00.

`Cn1c(-c2ccc3c(c2)C(C)(C)OC(=O)N3)cnc1C#N`: the pIC50 against Progesterone receptor [1] was below 5.52. Also, at Progesterone receptor [3], the pEC50 is 6.89.

`CC1(C)OC(=O)Nc2ccc(-c3ccc(C(=O)C(F)(F)F)[nH]3)cc21`: at Progesterone receptor [1], the pIC50 was below 5.52. The pEC50 at Progesterone receptor [3] is around 6.00.

The values above are taken from ChEMBL document CHEMBL1147554, “Novel pyrrole-containing progesterone receptor modulators” (Bioorg Med Chem Lett, 2004).
